Data: patent US20080108611A1, “SUBSTITUTED THIENOPYRIMIDINE KINASE INHIBITORS” (priority 2006, published 2008)

Key:
[1] = biological target: T1, Lyn kinase (Homo sapiens, UniProt P07948); assay: Lyn Kinase Assay; format: biochemical; details: test concentration of 2 μM; read-out: Lyn Inhibition (%) Inh
T1 construct: purchased Upstate Biotechnology, Lake Placid, N.Y
Protocol: A mixture of a 10× kinase buffer (500 mM MOPS at pH 7.5, 1 mM EGTA, 1 mM Sodium Vanadate, 1% β-mercaptoethanol and 100 mM Magnesium Acetate), ATP (5 μM final from a 10 mM stock), polyGluTyr (0.1 mg/mL final from a 1 mg/mL stock), γ-^33P ATP (10 μCi/μL stock) and water (20 μL/well) was added to each well of a Streptavidin Flashplate.
Test compound in 100% DMSO (0.5 μL) was added to the appropriate wells. Diluted Lyn kinase (human) (Upstate Biotechnology, Lake Placid, N.Y.) (diluted in a buffer consisting of 50 mM Tris at pH 7.5, 0.1 mM EGTA, Sodium Vanadate (0.1 mM), 13-mercaptoethanol (0.1%) and 1 mg/mL bovine serum albumin) (2.5 μL) was added to the wells to initiate the reactions.
The reaction plates were incubated at 30° C. for 40 min. The reaction was terminated by the addition of a 3% phosphoric acid solution (5 μL). The reaction product (10 μL) was spotted onto a P30 filtermat and washed for 5 minutes in phosphoric acid (75 mM). The wash sequence was repeated two more times, followed with one final wash in methanol. The plates were then dried, sealed and read on the TopCount scintillation counter after adding 30 μL scintillation fluid. Percent inhibition was derived according to the procedure described in Example 1. The percent inhibition results are shown in Table 4 at a test concentration of 2 μM.

[2] = test system: HCT-116 colon carcinoma; assay: Cell Proliferation Inhibition Assay (14C-thymidine incorporation), HCT116; format: cell-based; details: Homo sapiens, HCT116 cells
Protocol: The ability of a test compound to inhibit unregulated cell proliferation was determined by measuring incorporation of ^14C-labelled thymidine into newly synthesized DNA within cell lines derived from carcinomas originating from several tissues. Accordingly, the anti-proliferative effect of a compound on cells with a variety of phenotypes may be determined.
Carcinoma cell lines include those such as HeLa cervical adenocarcinoma (American Type Culture Collection (ATCC), Virginia, Cat. #CCL-2), A375 malignant melanoma (ATCC CRL-1619), SK-OV-3 ovarian adenocarcinoma (ATCC HTB-77), HCT-116 colon carcinoma (CCL-247), PC-3 prostate adenocarcinoma (ATCC CRL-1435), and MDA-MB-231 (Xenogen Corp.)
The carcinoma cells were trypsinized and counted. The cells (3000-8000 count) were added to each well of a 96-well CytoStar tissue culture treated scintillating microplate (Amersham #RPNQ0160) in complete medium (100 μL) and the plate was then incubated in complete medium for 24 hrs at 37° C. in an […] atmosphere containing 5% CO2. Test compound (1 μL) in 100% DMSO was added to the plate test-wells with DMSO only added to control-wells. The plate was incubated in complete medium for a second 24 hr period at 37° C. in an atmosphere containing 5% CO2.
An aliquot of a solution of methyl ^14C-thymidine (56 mC/mmol) (NEN #NEC568 or Amersham #CFA532) and complete medium (20 uL to provide 0.2 μCi/well) was then added to each well and the plate was incubated for a third 24 hr period at 37° C. in an atmosphere containing 5% CO2. The plate contents were then discarded, the plate was washed twice with PBS (200 μL) and then PBS (200 μL) was added to each well. The plate was sealed and the degree of methyl ^14C-thymidine incorporation was quantified on a Packard Top Count.

[3] = biological target: T2, Aurora-A (Mus musculus, UniProt P97477); assay: Aurora-A Screening Assay; format: biochemical; details: murine Aurora-A full length, 10 μM ATP
T2 construct: followed by the full length protein encoding the murine Aurora-A; polyhistidine (N); made in house; host or cells: Sf9 insect cells
T2 sequence (P97477 1-395): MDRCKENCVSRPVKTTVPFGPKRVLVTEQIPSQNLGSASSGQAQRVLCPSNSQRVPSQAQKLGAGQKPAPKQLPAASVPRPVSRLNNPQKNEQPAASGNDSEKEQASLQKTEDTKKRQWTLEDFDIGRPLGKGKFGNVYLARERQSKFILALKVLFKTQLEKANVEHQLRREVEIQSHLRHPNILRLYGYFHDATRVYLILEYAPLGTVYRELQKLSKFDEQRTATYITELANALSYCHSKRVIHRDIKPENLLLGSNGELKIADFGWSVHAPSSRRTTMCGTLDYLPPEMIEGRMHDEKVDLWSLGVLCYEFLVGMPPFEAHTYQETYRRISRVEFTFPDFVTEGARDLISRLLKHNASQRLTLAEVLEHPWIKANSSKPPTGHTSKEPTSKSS
Protocol: A kinase reaction mixture was prepared containing 50 mM Tris-HCl at pH 8, 10 mM MgCl2, 0.1 mM Na3PO4, 1 mM DTT, 10 μM ATP, 0.025 μM biotinylated histone-H1 peptide substrate and 0.2 μCuries per well ^33P-γ-ATP (2000-3000 Ci/mmol). 70 μL of the kinase reaction mixture was dispensed into the well of a Streptavidin FlashPlate.
Test compound stock in 100% DMSO (1 μL) was added to the wells resulting in a final concentration of 1% DMSO in the reaction with a 100 μL final reaction volume. Each enzyme was diluted in 50 mM Tris-HCl pH=8.0, 0.1% BSA and 30 μL was added to each well to initiate the reaction. The reaction was incubated for one hour at 30° C. At the end of the 1 hr incubation, the reaction was terminated by aspirating the mixture from the plate and washing the wells twice with PBS containing 100 mM EDTA. The biotinylated peptide substrate became immobilized on the Flashplate™ and the incorporation of ^33P-γ-ATP was measured by reading the plate on a scintillation counter. Inhibition of the enzymatic activity was measured by observing a reduced amount of ^33P-γ-ATP incorporated into the immobilized peptide.
Aurora-A is a fusion protein containing a polyhistidine tag at the N terminus followed by the full length protein encoding the murine Aurora-A (Accession number GB BC014711) expressed and purified from sf9 insect cells. The assay used 400 ng of the N-terminal biotinylated peptide biotin-GRTGRRNSI-amide (Aurora-A) per well.
The IC50 was derived according to the procedure described in Example 1.

T1 sequence (P07948 whole entry): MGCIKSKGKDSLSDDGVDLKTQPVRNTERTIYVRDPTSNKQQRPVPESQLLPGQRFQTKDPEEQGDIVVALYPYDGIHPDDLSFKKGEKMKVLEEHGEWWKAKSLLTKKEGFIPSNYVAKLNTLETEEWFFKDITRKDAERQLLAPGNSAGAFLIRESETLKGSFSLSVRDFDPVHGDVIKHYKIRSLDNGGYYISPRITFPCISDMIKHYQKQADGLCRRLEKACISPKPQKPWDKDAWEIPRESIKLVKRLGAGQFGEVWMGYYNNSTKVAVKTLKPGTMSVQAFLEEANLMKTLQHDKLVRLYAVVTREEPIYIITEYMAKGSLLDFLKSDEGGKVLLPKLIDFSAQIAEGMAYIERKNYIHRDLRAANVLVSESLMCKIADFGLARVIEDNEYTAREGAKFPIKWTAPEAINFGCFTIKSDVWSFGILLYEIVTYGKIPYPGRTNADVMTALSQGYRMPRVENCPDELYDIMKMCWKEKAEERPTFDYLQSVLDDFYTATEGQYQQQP

SMILES | inhibition at 2 µM [1] | IC50 [2] | IC50 [3]
Cc1cc2c(F)c(Oc3ncnc4sc(C(=O)NCCN5CCOCC5)c(C)c34)ccc2[nH]1 [Cpd 19, 4-(4-fluoro-2-methyl-1H-indol-5-yloxy)-5-methyl-thieno[2,3-d]pyrimidine-6-carboxylic acid (2-morpholin-4-yl-ethyl)-amide] | 16% | > 10 µM | > 100 µM
Cc1cc2c(F)c(Oc3ncnc4sc(C(=O)Nc5ccc(CN6CCOCC6)cc5)c(C)c34)ccc2[nH]1 [Cpd 20, 4-(4-fluoro-2-methyl-1H-indol-5-yloxy)-5-methyl-thieno[2,3-d]pyrimidine-6-carboxylic acid (4-morpholin-4-ylmethyl-phenyl)-amide] | 20% | > 10 µM | > 100 µM
Cc1cc2c(F)c(Oc3ncnc4sc(C(=O)NCCN5CCCCC5)c(C)c34)ccc2[nH]1 [Cpd 21, 4-(4-fluoro-2-methyl-1H-indol-5-yloxy)-5-methyl-thieno[2,3-d]pyrimidine-6-carboxylic acid (2-piperidin-1-yl-ethyl)-amide] | 8% | 9.4 µM | > 100 µM
Cc1cc2c(F)c(Oc3ncnc4sc(C(=O)NCCN5CCCC5)c(C)c34)ccc2[nH]1 [Cpd 22, 4-(4-fluoro-2-methyl-1H-indol-5-yloxy)-5-methyl-thieno[2,3-d]pyrimidine-6-carboxylic acid (2-pyrrolidin-1-yl-ethyl)-amide] | -2% | 22.3 µM | > 100 µM

Second part, the molecule after the results:

inhibition at 2 µM [1] | IC50 [2] | IC50 [3] | SMILES
9% | 7.1 µM | > 100 µM | Cc1c(C(=O)Nc2ccc(CN3CCOCC3)cc2)sc2ncnc(Nc3ccc(Oc4ccccc4)cc3)c12 [Cpd 23, 5-methyl-4-(4-phenoxy-phenylamino)-thieno[2,3-d]pyrimidine-6-carboxylic acid (4-morpholin-4-ylmethyl-phenyl)-amide]
23% | > 10 µM | > 100 µM | Cc1c(C(=O)NCCN2CCOCC2)sc2ncnc(Nc3ccc(Oc4ccccc4)cc3)c12 [Cpd 24]
23% | > 10 µM | > 10 µM | COCCNC(=O)c1sc2ncnc(Oc3ccc4[nH]c(C)cc4c3F)c2c1C [Cpd 27, 4-(4-fluoro-2-methyl-1H-indol-5-yloxy)-5-methyl-thieno[2,3-d]pyrimidine-6-carboxylic acid (2-methoxy-ethyl)-amide]
